Laboratory results reported in patent publication US20230150974A1 (Foghorn Therapeutics Inc., priority 2020, published 2023).

Experiments:
HiBit-BRG1 = target: T1, HiBit-BRG1 (Homo sapiens, UniProt P51532); test: HiBit-BRG1 cell-based degradation assay (Nano-Glo HiBiT Lytic Detection); conditions: HeLa cells expressing HiBit-BRG1 and LgBit, 24 h; for DC50: read-out: BRG1 HiBit Degradation IC50; for Dmax: read-out: BRG1 HiBit Degradation Maximum (%)
T1 construct: expressed in transfected cells
How it was run: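 Seed 5000 HeLa HiBit-BRG1/LgBit cells per well; treat 24 h; equilibrate 15 min at room temperature; add Nano-Glo HiBiT lytic reagent, shake 10 min, read luminescence. Percent degradation is scaled between DMSO and 2 μM reference degrader wells.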

HiBiT-BRM = target: T2, HiBiT-BRM (Homo sapiens, UniProt P51531); test: HiBiT-BRM cell-based degradation assay (Nano-Glo HiBiT Lytic Detection); conditions: HeLa cells expressing HiBiT-BRM, 24 h; for DC50: read-out: BRM HiBit Degradation IC50
T2 construct: expressed in transfected cells
T2 sequence (P51531 whole entry): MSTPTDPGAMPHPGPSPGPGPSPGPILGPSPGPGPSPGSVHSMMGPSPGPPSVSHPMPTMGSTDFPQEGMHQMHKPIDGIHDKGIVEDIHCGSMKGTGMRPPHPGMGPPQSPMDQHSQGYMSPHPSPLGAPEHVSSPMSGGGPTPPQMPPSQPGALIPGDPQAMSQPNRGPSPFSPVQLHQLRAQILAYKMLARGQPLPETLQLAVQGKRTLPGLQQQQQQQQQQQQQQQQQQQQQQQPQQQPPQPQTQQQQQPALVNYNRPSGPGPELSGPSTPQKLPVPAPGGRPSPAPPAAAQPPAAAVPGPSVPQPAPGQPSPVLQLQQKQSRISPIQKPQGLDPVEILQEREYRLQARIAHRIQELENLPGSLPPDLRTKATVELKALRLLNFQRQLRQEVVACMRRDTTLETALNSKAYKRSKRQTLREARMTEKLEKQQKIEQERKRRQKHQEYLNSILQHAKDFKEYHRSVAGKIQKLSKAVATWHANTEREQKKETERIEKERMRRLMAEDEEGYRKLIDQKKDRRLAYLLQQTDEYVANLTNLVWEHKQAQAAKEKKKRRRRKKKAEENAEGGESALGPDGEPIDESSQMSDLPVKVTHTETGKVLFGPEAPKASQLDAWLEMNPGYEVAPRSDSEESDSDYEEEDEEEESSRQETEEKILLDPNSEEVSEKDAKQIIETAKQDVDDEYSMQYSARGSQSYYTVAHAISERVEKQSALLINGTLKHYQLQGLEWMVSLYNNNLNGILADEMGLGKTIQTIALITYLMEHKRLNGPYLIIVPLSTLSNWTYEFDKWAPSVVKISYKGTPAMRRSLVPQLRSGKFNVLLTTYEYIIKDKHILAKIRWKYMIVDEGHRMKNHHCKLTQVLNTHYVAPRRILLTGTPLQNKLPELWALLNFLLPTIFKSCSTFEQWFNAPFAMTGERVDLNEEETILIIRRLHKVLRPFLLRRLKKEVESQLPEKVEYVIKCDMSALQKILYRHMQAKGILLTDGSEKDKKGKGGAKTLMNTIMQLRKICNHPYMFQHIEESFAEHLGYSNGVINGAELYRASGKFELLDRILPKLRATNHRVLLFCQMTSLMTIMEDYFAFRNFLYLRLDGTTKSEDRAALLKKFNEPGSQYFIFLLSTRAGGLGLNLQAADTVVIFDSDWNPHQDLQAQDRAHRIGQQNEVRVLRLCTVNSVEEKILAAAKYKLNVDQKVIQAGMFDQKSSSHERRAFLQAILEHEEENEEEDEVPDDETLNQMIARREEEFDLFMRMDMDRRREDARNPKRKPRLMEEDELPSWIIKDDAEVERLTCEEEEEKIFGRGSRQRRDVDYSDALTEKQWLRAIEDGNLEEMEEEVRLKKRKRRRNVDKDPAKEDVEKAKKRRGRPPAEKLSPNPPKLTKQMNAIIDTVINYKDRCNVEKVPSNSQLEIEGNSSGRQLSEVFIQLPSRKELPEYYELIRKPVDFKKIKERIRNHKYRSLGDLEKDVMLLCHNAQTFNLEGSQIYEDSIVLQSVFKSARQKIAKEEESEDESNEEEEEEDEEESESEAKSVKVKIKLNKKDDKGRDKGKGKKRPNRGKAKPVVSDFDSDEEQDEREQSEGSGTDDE
How it was run: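 Luminescence from HiBiT–LgBiT complementation in lysates of a stable HiBiT-BRM HeLa line measured after 24 h compound exposure. Degradation expressed as percent relative to DMSO-treated cells and cells given 2 μM of a known BRM/BRG1 degrader.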

T1 sequence (P51532 whole entry): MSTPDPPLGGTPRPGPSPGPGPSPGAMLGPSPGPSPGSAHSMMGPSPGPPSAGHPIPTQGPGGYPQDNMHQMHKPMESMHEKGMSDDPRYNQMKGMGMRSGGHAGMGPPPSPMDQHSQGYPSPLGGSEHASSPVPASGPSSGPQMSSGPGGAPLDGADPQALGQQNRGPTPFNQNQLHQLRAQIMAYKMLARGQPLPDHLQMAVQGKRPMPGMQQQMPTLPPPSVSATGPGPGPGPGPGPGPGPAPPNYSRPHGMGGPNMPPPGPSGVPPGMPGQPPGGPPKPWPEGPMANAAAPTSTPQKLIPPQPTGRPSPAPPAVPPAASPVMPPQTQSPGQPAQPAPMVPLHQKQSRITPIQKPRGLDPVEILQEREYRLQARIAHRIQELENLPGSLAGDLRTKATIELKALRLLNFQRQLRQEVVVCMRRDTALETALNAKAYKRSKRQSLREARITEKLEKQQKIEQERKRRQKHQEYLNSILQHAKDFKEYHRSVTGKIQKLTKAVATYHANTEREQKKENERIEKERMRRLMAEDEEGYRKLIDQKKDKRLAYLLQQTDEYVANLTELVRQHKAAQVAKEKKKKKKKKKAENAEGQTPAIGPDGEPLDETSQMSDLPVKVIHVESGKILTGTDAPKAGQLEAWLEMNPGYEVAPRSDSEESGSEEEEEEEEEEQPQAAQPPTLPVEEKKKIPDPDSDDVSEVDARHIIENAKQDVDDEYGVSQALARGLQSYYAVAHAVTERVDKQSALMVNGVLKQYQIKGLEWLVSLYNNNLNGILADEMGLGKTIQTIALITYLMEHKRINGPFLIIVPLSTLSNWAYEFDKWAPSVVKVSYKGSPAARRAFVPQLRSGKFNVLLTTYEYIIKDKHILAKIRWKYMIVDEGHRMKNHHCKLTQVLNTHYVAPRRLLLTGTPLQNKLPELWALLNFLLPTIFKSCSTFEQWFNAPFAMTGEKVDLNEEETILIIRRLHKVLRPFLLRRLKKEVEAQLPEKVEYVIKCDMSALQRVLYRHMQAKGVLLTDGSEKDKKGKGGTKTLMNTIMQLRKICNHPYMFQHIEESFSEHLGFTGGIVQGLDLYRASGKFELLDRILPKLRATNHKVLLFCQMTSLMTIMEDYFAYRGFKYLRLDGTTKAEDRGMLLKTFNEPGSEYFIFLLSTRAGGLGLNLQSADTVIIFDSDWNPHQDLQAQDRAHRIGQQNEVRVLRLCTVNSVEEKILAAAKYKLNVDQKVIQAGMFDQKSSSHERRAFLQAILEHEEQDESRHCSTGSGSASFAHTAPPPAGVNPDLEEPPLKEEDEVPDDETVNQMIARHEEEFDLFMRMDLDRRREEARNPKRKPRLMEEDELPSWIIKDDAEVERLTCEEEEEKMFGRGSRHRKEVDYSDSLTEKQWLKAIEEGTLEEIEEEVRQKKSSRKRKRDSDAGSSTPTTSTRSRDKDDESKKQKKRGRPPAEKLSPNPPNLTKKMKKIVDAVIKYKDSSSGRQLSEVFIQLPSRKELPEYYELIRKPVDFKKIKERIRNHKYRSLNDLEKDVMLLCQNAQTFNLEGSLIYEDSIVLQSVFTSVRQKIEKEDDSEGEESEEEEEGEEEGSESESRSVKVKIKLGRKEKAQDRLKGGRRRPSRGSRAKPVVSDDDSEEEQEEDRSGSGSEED

Row | SMILES | DC50 (HiBit-BRG1) [nM] | Dmax (HiBit-BRG1) [%] | DC50 (HiBiT-BRM) [nM] | BRM HiBit Degradation Maximum (%) (HiBiT-BRM)
1 | Cc1ncsc1-c1ccc([C@H](C)NC(=O)[C@@H]2C[C@@H](O)CN2C(=O)[C@@H](c2cc(OCCN3C[C@@H]4CN(C(=O)c5ccc(CCOc6cc(-c7ccccc7O)nnc6N)cc5)C[C@@H]4C3)no2)C(C)C)cc1 [Compound 190, (2S,4R)-1-((2R)-2-(3-(2-(5-(4-(2-((3-amino-6-(2-hydroxyphenyl)pyridazin-4-yl)oxy)ethyl)benzoyl)hexahydropyrrolo[3,4-c]pyrrol-2(1H)-yl)ethoxy)isoxazol-5-yl)-3-methylbutanoyl)-4-hydroxy-N-((S)-1-(4-(4-methylthiazol-5-yl)phenyl)ethyl)pyrrolidine-2-carboxamide] | > 100 | > 75 | > 10 | A (“A” indicates maximum degradation ≥75%)
2 | Cc1ncsc1-c1ccc([C@H](C)NC(=O)[C@@H]2C[C@@H](O)CN2C(=O)[C@@H](c2cc(OCCN3CC4(C3)CN(CC(=O)NCc3ccc(CCOc5cc(-c6ccccc6O)nnc5N)cc3)C4)no2)C(C)C)cc1 [Compound 191, (2S,4R)-1-[(2R)-2-[3-(2-[6-[([[4-(2-[[3-amino-6-(2-hydroxyphenyl)pyridazin-4-yl]oxy]ethyl)phenyl]methyl]carbamoyl)methyl]-2,6-diazaspiro[3.3]heptan-2-yl]ethoxy)-1,2-oxazol-5-yl]-3-methylbutanoyl]-4-hydroxy-N-[(1S)-1-[4-(4-methyl-1,3-thiazol-5-yl)phenyl]ethyl]pyrrolidine-2-carboxamide] | > 1000 | > 75 | > 100 | A (“A” indicates maximum degradation ≥75%)
3 | Cc1ncsc1-c1ccc([C@H](C)NC(=O)[C@@H]2C[C@@H](O)CN2C(=O)[C@@H](c2cc(OCCN3CC(CC(=O)NCc4ccc(CCOc5cc(-c6ccccc6O)nnc5N)cc4)C3)no2)C(C)C)cc1 [Compound 193, (2S,4R)-1-[2-[3-(2-[3-[([[4-(2-[[3-amino-6-(2-hydroxyphenyl)pyridazin-4-yl]oxy]ethyl)phenyl]methyl]carbamoyl)methyl]azetidin-1-yl]ethoxy)-1,2-oxazol-5-yl]-3-methylbutanoyl]-4-hydroxy-N-[(1S)-1-[4-(4-methyl-1,3-thiazol-5-yl)phenyl]ethyl]pyrrolidine-2-carboxamide] | > 1000 | < 50 | > 100 | B (“B” indicates maximum degradation ≥50%)
4 | Cc1ncsc1-c1ccc([C@H](C)NC(=O)[C@@H]2C[C@@H](O)CN2C(=O)[C@@H](c2cc(OCCN3C[C@@H]4[C@H](C3)[C@H]4C(=O)NCc3ccc(CCOc4cc(-c5ccccc5O)nnc4N)cc3)no2)C(C)C)cc1 [Compound 194] | > 100 | > 75 | > 10 | A (“A” indicates maximum degradation ≥75%)
5 | Cc1ncsc1-c1ccc([C@H](C)NC(=O)[C@@H]2C[C@@H](O)CN2C(=O)[C@@H](c2cc(OCCN3CCC4(CC3)CC(C(=O)NCc3ccc(CCOc5cc(-c6ccccc6O)nnc5N)cc3)C4)no2)C(C)C)cc1 [Compound 195, N-(4-(2-((3-amino-6-(2-hydroxyphenyl)pyridazin-4-yl)oxy)ethyl)benzyl)-7-(2-((5-((R)-1-((2S,4R)-4-hydroxy-2-(((S)-1-(4-(4-methylthiazol-5-yl)phenyl)ethyl)carbamoyl)pyrrolidin-1-yl)-3-methyl-1-oxobutan-2-yl)isoxazol-3-yl)oxy)ethyl)-7-azaspiro[3.5]nonane-2-carboxamide] | > 100 | > 75 | > 10 | A (“A” indicates maximum degradation ≥75%)
6 | Cc1ncsc1-c1ccc([C@H](C)NC(=O)[C@@H]2C[C@@H](O)CN2C(=O)[C@@H](NC(=O)CCCCCCCCCCCCCC(=O)N(C)Cc2ccc(CCOc3cc(-c4ccccc4O)nnc3N)cc2)C(C)(C)C)cc1 [Compound 197, N1-(4-(2-((3-amino-6-(2-hydroxyphenyl)pyridazin-4-yl)oxy)ethyl)benzyl)-N15-((S)-1-((2S,4R)-4-hydroxy-2-(((S)-1-(4-(4-methylthiazol-5-yl)phenyl)ethyl)carbamoyl)pyrrolidin-1-yl)-3,3-dimethyl-1-oxobutan-2-yl)-N1-methylpentadecanediamide] | > 1000 | < 50 | > 10 | A (“A” indicates maximum degradation ≥75%)

More lines, main results first:

Row | DC50 (HiBit-BRG1) [nM] | Dmax (HiBit-BRG1) [%] | DC50 (HiBiT-BRM) [nM] | SMILES | BRM HiBit Degradation Maximum (%) (HiBiT-BRM)
7 | > 1000 | < 50 | > 1000 | Cc1ncsc1-c1ccc(CNC(=O)[C@@H]2C[C@@H](O)CN2C(=O)[C@@H](NC(=O)CCN2CCN(CCC(=O)NCc3ccc(CCOc4cc(-c5ccccc5O)nnc4N)cc3)CC2)C(C)(C)C)cc1 [Compound 189, (2S,4R)-1-[(2S)-2-(3-[4-[2-([[4-(2-[[3-amino-6-(2-hydroxyphenyl)pyridazin-4-yl]oxy]ethyl)phenyl]methyl]carbamoyl)ethyl]piperazin-1-yl]propanamido)-3,3-dimethylbutanoyl]-4-hydroxy-N-[[4-(4-methyl-1,3-thiazol-5-yl)phenyl]methyl]pyrrolidine-2-carboxamide] | C (“C” indicates maximum degradation <50%)
8 | > 1000 | > 50 | > 100 | Cc1ncsc1-c1ccc([C@H](C)NC(=O)[C@@H]2C[C@@H](O)CN2C(=O)[C@@H](c2cc(OCCN3CC4(C3)CN(CCC(=O)NCc3ccc(CCOc5cc(-c6ccccc6O)nnc5N)cc3)C4)no2)C(C)C)cc1 [Compound 192, (2S,4R)-1-[(2R)-2-[3-(2-[6-[2-([[4-(2-[[3-amino-6-(2-hydroxyphenyl)pyridazin-4-yl]oxy]ethyl)phenyl]methyl]carbamoyl)ethyl]-2,6-diazaspiro[3.3]heptan-2-yl]ethoxy)-1,2-oxazol-5-yl]-3-methylbutanoyl]-4-hydroxy-N-[(1S)-1-[4-(4-methyl-1,3-thiazol-5-yl)phenyl]ethyl]pyrrolidine-2-carboxamide] | A (“A” indicates maximum degradation ≥75%)
9 | > 1000 | < 50 | > 1000 | Cc1ncsc1-c1ccc(CNC(=O)[C@@H]2C[C@@H](O)CN2C(=O)[C@@H](NC(=O)CCN2CC3(C2)CN(CC(=O)NCc2ccc(CCOc4cc(-c5ccccc5O)nnc4N)cc2)C3)C(C)(C)C)cc1 [Compound 196, (2S,4R)-1-((S)-2-(3-(6-(2-((4-(2-((3-amino-6-(2-hydroxyphenyl)pyridazin-4-yl)oxy)ethyl)benzyl)amino)-2-oxoethyl)-2,6-diazaspiro[3.3]heptan-2-yl)propanamido)-3,3-dimethylbutanoyl)-4-hydroxy-N-(4-(4-methylthiazol-5-yl)benzyl)pyrrolidine-2-carboxamide] | C (“C” indicates maximum degradation <50%)
10 | > 1000 | < 50 | > 10 | Cc1ncsc1-c1ccc([C@H](C)NC(=O)[C@@H]2C[C@@H](O)CN2C(=O)[C@@H](NC(=O)CCCCCCCCCC(=O)NCc2ccc(CCOc3cc(-c4ccccc4O)nnc3N)cc2)C(C)(C)C)cc1 [Compound 198, N1-(4-(2-((3-amino-6-(2-hydroxyphenyl)pyridazin-4-yl)oxy)ethyl)benzyl)-N11-((S)-1-((2S,4R)-4-hydroxy-2-(((S)-1-(4-(4-methylthiazol-5-yl)phenyl)ethyl)carbamoyl)pyrrolidin-1-yl)-3,3-dimethyl-1-oxobutan-2-yl)undecanediamide] | A (“A” indicates maximum degradation ≥75%)
11 | > 1000 | < 50 | > 1000 | Cc1ncsc1-c1ccc(CNC(=O)[C@@H]2C[C@@H](O)CN2C(=O)[C@@H](NC(=O)CCN2CC(C3CCN(C(=O)c4ccc(CCOc5cc(-c6ccccc6O)nnc5N)cc4)CC3)C2)C(C)(C)C)cc1 [Compound 199, (2S,4R)-1-((S)-2-(3-(3-(1-(4-(2-((3-amino-6-(2-hydroxyphenyl)pyridazin-4-yl)oxy)ethyl)benzoyl)piperidin-4-yl)azetidin-1-yl)propanamido)-3,3-dimethylbutanoyl)-4-hydroxy-N-(4-(4-methylthiazol-5-yl)benzyl)pyrrolidine-2-carboxamide] | C (“C” indicates maximum degradation <50%)
12 | > 1000 | < 50 | > 1000 | Cc1ncsc1-c1ccc(CNC(=O)[C@@H]2C[C@@H](O)CN2C(=O)[C@@H](NC(=O)CCN2CC3(C2)CN(C(=O)c2ccc(CCOc4cc(-c5ccccc5O)nnc4N)cc2)C3)C(C)(C)C)cc1 [Compound 200, (2S,4R)-1-((S)-2-(3-(6-(4-(2-((3-amino-6-(2-hydroxyphenyl)pyridazin-4-yl)oxy)ethyl)benzoyl)-2,6-diazaspiro[3.3]heptan-2-yl)propanamido)-3,3-dimethylbutanoyl)-4-hydroxy-N-(4-(4-methylthiazol-5-yl)benzyl)pyrrolidine-2-carboxamide] | C (“C” indicates maximum degradation <50%)
13 | > 1000 | < 50 | > 1000 | Cc1ncsc1-c1ccc(CNC(=O)[C@@H]2C[C@@H](O)CN2C(=O)[C@@H](NC(=O)CCN2CCC3(CC2)CCN(C(=O)c2ccc(CCOc4cc(-c5ccccc5O)nnc4N)cc2)CC3)C(C)(C)C)cc1 [Compound 201, (2S,4R)-1-((S)-2-(3-(9-(4-(2-((3-amino-6-(2-hydroxyphenyl)pyridazin-4-yl)oxy)ethyl)benzoyl)-3,9-diazaspiro[5.5]undecan-3-yl)propanamido)-3,3-dimethylbutanoyl)-4-hydroxy-N-(4-(4-methylthiazol-5-yl)benzyl)pyrrolidine-2-carboxamide] | B (“B” indicates maximum degradation ≥50%)
